Measurements from US20230146675A1, “PYRIMIDO[5,4-d]PYRIMIDINE DERIVATIVES AS ENT INHIBITORS FOR THE TREATMENT OF CANCERS, AND COMBINATION THEREOF WITH ADENOSINE RECEPTOR ANTAGONISTS” (ITEOS BELGIUM SA, priority 2020, published 2023).
Where two headings read alike, the source gives them in different places.

How the values were obtained:
[1] = target: T1, Human phosphodiesterase-5 (Homo sapiens, UniProt O76074); experiment: PDE5 (h) (non-selective) assay; assay type: biochemical
T1 construct: using an enzyme isolated from human platelets at Eurofins-Cerep; tissue Eurofins-Cerep; host or cells: human platelets
Protocol: (§1) The test compound (compound 72), reference compound or water (control) were added to a buffer containing 40 mM Tris/HCl (pH 7.4), 8 mM MgCl2 0.21% BSA, 0.5 μg/ml calmoduline and 0.5 mM CaCl2), 1.125 μM cGMP and 0.027 μCi [3H]cGMP. Thereafter, the reaction was initiated by addition of the enzyme (about 0.2 U) and the mixture was incubated for 20 min at 22° C. For basal control measurements, the enzyme was omitted from the reaction mixture. Following incubation SPA beads were added. After 30 min at 22° C. under shaking, the amount of [3H]5′GMP was quantified with a scintillation counter (MicroBeta, Perkin Elmer). The results were expressed as a percent inhibition of the control enzyme activity. The standard inhibitory reference compound was Nitrendipine, which was tested in each experiment at several concentrations to obtain an inhibition curve from which its IC50 value was calculated. • Human phosphodiesterase-5 quantified by measuring the formation of 5′GMP from cGMP using an enzyme isolated from human platelets at Eurofins-Cerep.
The test compound (compound 72), reference compound or water (control) were added to a buffer containing 40 mM Tris/HCl (pH 7.8), 3 mM MgCl2, 1.4 mM DTT, 0.21% BSA, 200 mM NH4Cl, 1 μM cGMP and 0.1 μCi [3H]cGMP. […] After 20 min at 22° C. under shaking, the amount of [3H]5′GMP was quantified with a scintillation counter (MicroBeta, Perkin Elmer). […]

[2] = target: T2, Human phosphodiesterase-1B (Homo sapiens, UniProt Q01064); experiment: PDE1B (h) assay; assay type: biochemical
T2 construct: host or cells: Sf9 cells
Protocol: Method. • Human phosphodiesterase-1B quantified by measuring the formation of 5′GMP from cGMP using a human recombinant enzyme expressed in Sf9 cells
as §1

[3] = target: T3, Human phosphodiesterase-3A (Homo sapiens, UniProt Q14432); experiment: PDE3A (h) assay; assay type: biochemical
T3 construct: host or cells: Sf9 cells
T3 sequence (Q14432 whole entry): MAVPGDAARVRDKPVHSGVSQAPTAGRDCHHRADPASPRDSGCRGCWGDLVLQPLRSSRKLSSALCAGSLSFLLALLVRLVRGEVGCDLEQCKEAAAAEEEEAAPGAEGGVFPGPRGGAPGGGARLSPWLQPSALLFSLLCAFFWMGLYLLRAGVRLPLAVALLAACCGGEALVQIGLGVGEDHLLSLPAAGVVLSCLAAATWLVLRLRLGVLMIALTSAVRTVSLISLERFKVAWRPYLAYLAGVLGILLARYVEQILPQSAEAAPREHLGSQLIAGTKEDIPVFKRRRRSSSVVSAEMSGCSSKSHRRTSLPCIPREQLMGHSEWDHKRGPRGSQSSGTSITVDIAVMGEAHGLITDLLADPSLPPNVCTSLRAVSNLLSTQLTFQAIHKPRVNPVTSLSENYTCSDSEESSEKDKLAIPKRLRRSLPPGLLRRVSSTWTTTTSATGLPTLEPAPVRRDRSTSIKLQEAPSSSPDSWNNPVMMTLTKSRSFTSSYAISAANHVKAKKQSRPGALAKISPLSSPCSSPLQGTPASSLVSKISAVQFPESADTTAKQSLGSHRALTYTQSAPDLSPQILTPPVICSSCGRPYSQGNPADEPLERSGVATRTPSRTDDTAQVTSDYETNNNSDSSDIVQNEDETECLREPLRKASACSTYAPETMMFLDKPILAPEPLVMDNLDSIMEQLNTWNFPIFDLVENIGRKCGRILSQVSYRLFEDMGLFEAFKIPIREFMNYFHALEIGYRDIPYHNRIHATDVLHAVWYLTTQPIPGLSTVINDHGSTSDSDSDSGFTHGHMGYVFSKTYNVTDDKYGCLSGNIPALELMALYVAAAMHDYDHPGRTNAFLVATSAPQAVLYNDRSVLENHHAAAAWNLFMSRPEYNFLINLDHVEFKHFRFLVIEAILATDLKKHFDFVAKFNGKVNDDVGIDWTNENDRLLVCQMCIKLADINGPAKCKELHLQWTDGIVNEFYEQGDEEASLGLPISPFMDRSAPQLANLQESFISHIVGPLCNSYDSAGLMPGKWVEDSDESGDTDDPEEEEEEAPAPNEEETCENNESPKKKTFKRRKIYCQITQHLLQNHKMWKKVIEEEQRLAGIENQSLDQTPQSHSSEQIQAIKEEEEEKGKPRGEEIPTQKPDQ
Protocol: The test compound (compound 72), reference compound or water (control) were added to a buffer containing 40 mM Tris/HCl (pH 7.4) and 8 mM MgCl2, 180 nM cAMP and 0.1 μCi [3H]cAMP. Thereafter, the reaction was initiated by addition of the enzyme (about 0.8 U) and the mixture was incubated for 20 min at 22° C. For basal control measurements, the enzyme was omitted from the reaction mixture. Following incubation SPA beads were added. After 30 min at 22° C. under shaking, the amount of [3H]5′AMP was quantified with a scintillation counter (MicroBeta, Perkin Elmer). The results were expressed as a percent inhibition of the control enzyme activity. The standard inhibitory reference compound was papaverine, which was tested in each experiment at several concentrations to obtain an inhibition curve from which its IC50 value was calculated. • Human phosphodiesterase-3A quantified by measuring the formation of 5′AMP from cAMP using a human recombinant enzyme expressed in Sf9 cells
The test compound (compound 72), reference compound or water (control) were added to a buffer containing 40 mM Tris/HCl (pH 7.4) and 8 mM MgCl2, 450 nM cAMP and 0.25 μCi [3H]cAMP. […] After 30 min at 22° C. under shaking, the amount of [3H]5′AMP was quantified with a scintillation counter (Topcount, Packard). The results were expressed as a percent inhibition of the control enzyme activity. […]

human ENT1 = target: T4, human ENT1 (Homo sapiens, UniProt Q99808); experiment: Uridine transport inhibition assay (3H-uridine uptake, MDCKII-ENT1-LV cells); assay type: cell-based; settings: 3H-uridine (1 μM), 1 min at 25° C.
T4 sequence (Q99808 1-456): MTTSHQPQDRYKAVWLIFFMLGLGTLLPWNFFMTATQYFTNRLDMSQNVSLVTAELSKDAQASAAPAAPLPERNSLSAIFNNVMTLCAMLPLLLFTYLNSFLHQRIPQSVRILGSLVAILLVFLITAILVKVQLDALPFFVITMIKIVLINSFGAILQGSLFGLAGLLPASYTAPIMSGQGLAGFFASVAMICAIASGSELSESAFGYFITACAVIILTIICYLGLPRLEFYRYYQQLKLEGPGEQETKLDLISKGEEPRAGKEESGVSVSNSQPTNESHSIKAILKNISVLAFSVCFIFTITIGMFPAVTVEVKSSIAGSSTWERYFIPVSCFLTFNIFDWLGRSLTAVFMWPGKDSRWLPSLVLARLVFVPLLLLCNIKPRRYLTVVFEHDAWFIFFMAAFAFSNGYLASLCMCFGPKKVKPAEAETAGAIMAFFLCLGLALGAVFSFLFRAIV
Excerpt: Purpose. The aim of this study was to determine the potency of equilibrative nucleoside transporter 1 (ENT1) inhibitors by measuring ENT1-mediated transport is the cellular uptake assay. The human ENT1 transporter can be stably expressed in Madin-Darby Canine Kidney II (MDCKII) cells via transduction. Uridine is efficiently transported by ENT1 and is used as probe in the assay as 3H-uridine. The interaction is detected as the modulation of the initial rate of 3H-uridine transport by human ENT1 into MDCKII-ENT1-LV cells stably expressing ENT1 uptake transporter.

- IC50 ([1]; read-out: PDE5 (h) (non-selective) IC50): 1000 to 10000 nM
- IC50 ([1]; read-out: PDE5 IC50): 1080 nM
- IC50 [2]: > 10000 nM
- IC50 [3]: > 10000 nM
- IC50 (human ENT1): < 100 nM
Structure (SMILES): COCCN(CCOC)c1nc(N2CCN(C)C(=O)C2)c2nc(N(CCOC)CCOC)nc(N3CCC(OC)CC3)c2n1 [Compound 72, 4-(2,6-bis(bis(2-methoxyethyl)amino)-8-(4-methoxypiperidin-1-yl)pyrimido[5,4-d]pyrimidin-4-yl)-1-methylpiperazin-2-one]
